Data set [1] has as its system NCI-N87 human gastric cancer cells. Put plainly: cells. The class given is cell-based. Conditions: NCI-N87, killing 4 days; for EC50: Homo sapiens, NCI-N87, 96 h.
Data set [2] concerns KB oral epithelial cancer cells. Put plainly: Cell killing activity of camptothecins (CCK-8). The class given is cell-based. Conditions: killing 4 days; for EC50: 96 h. The protocol: (§1) KB oral epithelial cancer cells (purchased from: ATCC) were cultured in DMEM medium supplemented with 10% FBS; NCI-N87 human gastric cancer cells (purchased from: ATCC) were cultured in RPMI1640 medium supplemented with 10% FBS; HT29 human colon cancer cells (purchased from: ATCC) were cultured in RPMI1640 medium supplemented with 10% FBS; and BxPC-3 human pancreatic adenocarcinoma cells (purchased from: ATCC) were cultured in RPMI1640 medium supplemented with 10% FBS.
(§2) Using corresponding media described above and in cell plates, the density of KB cells was adjusted to 2×10^4/mL; the density of NCI-N87 cells was adjusted to 5×10^4/mL; the density of HT29 cells was adjusted to 5×10^4/mL, and the cells were plated onto 96-well transparent flat bottom plates, at 100 µL/well, and cultured overnight; and the density of BxPC-3 cells was adjusted to 5×10^4/mL.
(§3) Samples to be detected were diluted to 20 µM with corresponding media, then 5-fold gradient dilution was performed, and 9 concentrations were obtained. A well having cells but with no any sample added was set as the well showing maximum cell growth; and a well having no cells was set as the well of medium background. The diluted samples were added into the cell plates, at 100 µL/well, which were then incubated in a CO2 incubator for 96 hours. After the incubation, CCK-8 (purchased from: DOJINDO LABORATORIES) prepared beforehand was added into the plates, at 20 µL/well, and after further 3 hours of incubation in the CO2 incubator, OD values at 450 nm were read on a microplate reader.
(§4) Data obtained was fitted to a four-parameter curve using software Prism7, and equation for calculating maximum killing is: maximum killing (%) = 1 - (OD450 value of the well showing maximum killing - OD450 value of the well of medium background) / (OD450 value of the well showing maximum cell growth - OD450 value of the cell of medium background) × 100%. Table 6. Results of comparative study on the activity of camptothecins

Data set [3] concerns HT29 human colon cancer cells. Put plainly: Cell killing activity of camptothecins (CCK-8). It is filed as cell-based. Particulars: HT29, killing 4 days; for EC50: Homo sapiens, HT-29, 96 h. The protocol: as §1, §2, §3, §4
Data set [4] has as its system BxPC-3 human pancreatic adenocarcinoma cells. Put plainly: cells. Conditions: BxPC-3, killing 4 days; for EC50: Homo sapiens, BXPC-3, 96 h. It is filed as cell-based.
The target in data set [5] is T1, Recombinant human B7-H3 extracellular domain protein (UniProtKB-Q5ZPR3, amino acids 1-461, C-His tag) (human, UniProt Q5ZPR3 29-461).
T1 construct: range 1-461; The printed range 1-461 starts at residue 1 and so covers the signal peptide; also called human B7-H3 ECD-His; recombinant human B7-H3 ECD protein; not shown: C-terminal His tag
T1 sequence (looked up): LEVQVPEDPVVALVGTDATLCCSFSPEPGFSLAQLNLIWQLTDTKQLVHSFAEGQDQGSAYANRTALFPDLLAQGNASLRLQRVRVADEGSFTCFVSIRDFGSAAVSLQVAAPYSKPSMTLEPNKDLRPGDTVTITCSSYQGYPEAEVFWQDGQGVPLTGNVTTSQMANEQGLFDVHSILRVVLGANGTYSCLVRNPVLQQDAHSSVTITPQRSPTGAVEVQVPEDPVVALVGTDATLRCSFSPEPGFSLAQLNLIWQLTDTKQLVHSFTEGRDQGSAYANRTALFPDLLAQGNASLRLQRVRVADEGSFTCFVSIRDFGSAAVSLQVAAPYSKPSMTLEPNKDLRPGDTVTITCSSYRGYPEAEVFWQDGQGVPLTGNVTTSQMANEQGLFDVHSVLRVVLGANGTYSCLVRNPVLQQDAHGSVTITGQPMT
Put plainly: BLI (ForteBio Octet QKe), antibody on AHC probes, 60 nM antigen, 1:1 Langmuir fit.

The target of data set [6] is T2, human B7-H3 naturally expressed on the surface of SKOV3 cells (human, UniProt Q5ZPR3 29-534).
T2 construct: whole, on cells; also called surface antigen of SKOV3 cells; B7-H3 on the surface of SKOV3 cells
T2 sequence (looked up): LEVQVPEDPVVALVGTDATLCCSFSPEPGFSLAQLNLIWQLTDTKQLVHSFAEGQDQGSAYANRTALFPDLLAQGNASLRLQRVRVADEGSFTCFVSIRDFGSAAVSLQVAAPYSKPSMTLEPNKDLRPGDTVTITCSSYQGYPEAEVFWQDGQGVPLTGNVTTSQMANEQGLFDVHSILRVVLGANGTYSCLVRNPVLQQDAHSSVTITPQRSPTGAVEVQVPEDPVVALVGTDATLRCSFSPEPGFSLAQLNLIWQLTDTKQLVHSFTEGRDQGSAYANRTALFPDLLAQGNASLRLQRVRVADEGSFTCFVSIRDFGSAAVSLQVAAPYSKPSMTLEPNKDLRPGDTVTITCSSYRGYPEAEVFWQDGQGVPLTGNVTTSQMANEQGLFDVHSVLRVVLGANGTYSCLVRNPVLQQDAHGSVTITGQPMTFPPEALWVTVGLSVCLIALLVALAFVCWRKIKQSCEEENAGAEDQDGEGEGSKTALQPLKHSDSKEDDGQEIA
Put plainly: flow cytometry (MFI) on SKOV3 cells naturally expressing human B7-H3. Background: A flow cytometer gives signals particle by particle.

For data set [7] the following is noted: Phase I, advanced solid tumors, reported 2021; cited from earlier work.

The source of these data is patent EP4721767A1 (priority 2023, dated 2024).

Substitutions are numbered along the chain they refer to. Several values for one entry are separate records, joined by “and”; a condition that tells them apart may be missing. Equal entries are not always repeated.

Usually EC50 stands for the midpoint of the concentration-response curve. Higher therefore signals lower potency in that assay. Consider `CC[C@@]1(O)C(=O)OCc2c1cc1n(c2=O)Cc2c-1nc1ccc(N)c3c1c2CCC3` [MWC-1, reference compound], for which the “Maximum Killing (%)” value in data set [1] is 93.3%; in data set [2] it was 98.6%; in data set [3] it was 89% and 89.9%. Further, in data set [2], it took 15.7 nM to reach a half-maximal effect (EC50).
Consider `CC[C@@]1(O)C(=O)OCc2c1cc1n(c2=O)Cc2c-1nc1ccc(N)c3c1c2CC[S@+]3[O-]` [Compound 14-P1], for which the concentration giving a half-maximal response (EC50) in data set [1] is 503 nM.
Turning to `CC[C@@]1(O)C(=O)OCc2c1cc1n(c2=O)Cc2c-1nc1cc(F)c(N)c3c1c2CCO3` [Compound 18], the half-maximal effective concentration (EC50) in data set [1] came out at 1.57 nM; in data set [4] it was 1.45 nM.
Turning to `CC[C@@]1(O)C(=O)OCc2c1cc1n(c2=O)Cc2c-1nc1ccc(N)c3c1c2C1CC1C3` (stereo partly shown) [Compound 7], the EC50 in data set [1] was 3.31 nM; in data set [4] it was 11.4 nM.
For the molecule `CC[C@@]1(O)C(=O)OCc2c1cc1n(c2=O)Cc2c-1nc1cc(F)c(C)c3c1c2[C@@H](NC(=O)CO)CC3` [Dxd, reference compound], the “Maximum Killing (%)” value was 93.3% in data set [1] and 93.1% in data set [4]. Further, the figures for the EC50 in data set [4], in data set [2] and in data set [3] were 33.7 nM, 138 nM and 133 nM, respectively.
Turning to `CC[C@@]1(O)C(=O)OCc2c1cc1n(c2=O)Cc2c-1nc1ccc(N)c3c1c2CCS3` [Compound 12], the half-maximal effective concentration (EC50) came out at 8.43 nM in data set [1] and 2.15 nM in data set [4].
For the molecule `CC[C@@]1(O)C(=O)OCc2c1cc1n(c2=O)Cc2c-1nc1ccc(N)c3c1c2C(F)(F)CO3` [Compound 31], the EC50 in data set [1] came to 8.59 nM; in data set [4], 4.42 nM.
The corresponding values for `CC[C@@]1(O)C(=O)OCc2c1cc1n(c2=O)Cc2c-1nc1cc(F)c(N)c3c1c2CCS3` [Compound 26] are 1.02 nM and 1.11 nM.
As for `CC[C@@]1(O)C(=O)OCc2c1cc1n(c2=O)Cc2c-1nc1cc(F)c(N)c3c1c2C(F)(F)CO3` [Compound 19], in data set [1], the EC50 was 0.864 nM and the “Maximum Killing (%)” value is recorded as 93.5%. The molecule further displayed an EC50 in data set [4] of 1.4 nM.
Take `CC[C@@]1(O)C(=O)OCc2c1cc1n(c2=O)Cc2c-1nc1ccc(N)c3c1c2C(C)(C)CC3` [Compound 1]: the EC50 in data set [1] came out at 21.9 nM; in data set [2], 52.3 nM; in data set [3] it was 43.4 nM. Besides, the “Maximum Killing (%)” value in data set [2] amounted to 97.6%; in data set [3] it was 91.9%.
Turning to `CC[C@@]1(O)C(=O)OCc2c1cc1n(c2=O)Cc2c-1nc1ccc(N)c3c1c2CC[S@@+]3[O-]` [Compound 14-P2], the midpoint of the response in data set [1], the EC50, lay at 2000 nM.
In the case of `CC[C@@]1(O)C(=O)OCc2c1cc1n(c2=O)Cc2c-1nc1cc(F)c(N)c3c1c2C(F)(F)CS3` [Compound 27], the values for the EC50 in data set [1] and in data set [4] were 1.75 nM and 1.52 nM, respectively.
With `CC[C@@]1(O)C(=O)OCc2c1cc1n(c2=O)Cc2c-1nc1ccc(N)c3c1c2CCS3(=O)=O` [Compound 15], the EC50 in data set [1] was determined as 178 nM; in data set [4] it was 79.6 nM.

B1: hz10B4 (antibody, V domains shown)
VH: EVQLVQSGAEVKKPGASVKVSCKASGYTFTEYIMHWVRQAPGQGLEWMGGINPASGGTTYNQKFKGRVTMTRDTSISTAYMELSRLRSEDTAVYYCARKGKDYFDWYFDVWGQGTTVTVSS
VL: DIQLTQSPSSLSASVGDRVTMTCSASSSVSYMHWYQQKPGKAPKLLIYDTSKLASGVPSRFSGSGSGTDFTLTISSLQPEDFATYYCQQWSSNPLTFGGGTKVEIK
notes: Humanized anti-B7-H3 antibody prepared by the method of CN114573695A; also called parent hz10B4; hz10B4-VH×hz10B4-VL
In general, Kd refers to the constant that tells how readily two partners part at equilibrium. The term koff denotes a measure of how fast the partners let go of each other. In general, kon refers to the second-order rate constant of association. For B1, in data set [5], the Kd stood at 0.216 nM, the off-rate constant (koff) was 0.000143 s⁻¹ and the kon came to 665000 M⁻¹ s⁻¹. In data set [6], this molecule returned an EC50 of 1.58 nM.

B2: hz10B4m1 (antibody, V domains shown)
VH: B1 VH
VL: B1 VL with N93A
notes: LCDR3 variant of hz10B4 (SSN→SSA); also called hz10B4-VH×hz10B4-Lm1-VL
With B2, in data set [5], the dissociation constant Kd is 0.352 nM, the dissociation rate constant (koff) was 0.000225 s⁻¹ and the on-rate (kon) came out at 639000 M⁻¹ s⁻¹. In data set [6], this molecule yielded a half-maximal effective concentration (EC50) of 1.89 nM.

B3: hz10B4m4 (antibody, V domains shown)
VH: B1 VH
VL: B1 VL with N93G
notes: LCDR3 variant of hz10B4 (SSN→SSG); also called hz10B4-VH×hz10B4-Lm4-VL
Take B3: in data set [5], the Kd is 0.831 nM, the off-rate constant (koff) is 0.00042 s⁻¹ and the kon was 505000 M⁻¹ s⁻¹. In data set [6], the midpoint of the response, the EC50, lay at 16.9 nM.

B4: hz10B4m5 (antibody, V domains shown)
VH: B1 VH
VL: B1 VL with S92G, N93S
notes: LCDR3 variant of hz10B4 (SSN→SGS); also called hz10B4-VH×hz10B4-Lm5-VL
In the case of B4, in data set [5], the equilibrium dissociation constant (Kd) was determined as 0.568 nM, the off-rate constant (koff) amounted to 0.000336 s⁻¹ and the kon came out at 592000 M⁻¹ s⁻¹. The molecule also yielded an EC50 in data set [6] of 2.25 nM.

B5: hz10B4m3 (antibody, V domains shown)
VH: B1 VH
VL: B1 VL with N93Q
notes: LCDR3 variant of hz10B4 (SSN→SSQ); also called hz10B4-VH×hz10B4-Lm3-VL
Turning to B5, in data set [5], the dissociation constant Kd is 0.422 nM, the off-rate constant (koff) came out at 0.000281 s⁻¹ and the kon came to 666000 M⁻¹ s⁻¹. Moreover, the 50% effective concentration (EC50) in data set [6] is 1.59 nM.

B6: hz10B4m2 (antibody, V domains shown)
VH: B1 VH
VL: B1 VL with S92A, N93S
notes: LCDR3 variant of hz10B4 (SSN→SAS); also called hz10B4-VH×hz10B4-Lm2-VL
For B6, in data set [5], the dissociation constant Kd stood at 0.381 nM, the off-rate (koff) turned out to be 0.000287 s⁻¹ and the kon is 755000 M⁻¹ s⁻¹. For the same molecule, a half-maximal response in data set [6] (EC50) required 1.45 nM.

B7: MGC018: MacroGenics ADC: anti-B7-H3 humanized IgG1 monoclonal antibody conjugated to Duocarmycin (DUBA) via a cleavable linker, average DAR 2.7 (conjugate, chains of the INN, looked up)
VH: EVQLVESGGGLVKPGGSLRLSCAASGFTFSSYGMSWVRQAPGKGLEWVATINSGGSNTYYPDSLKGRFTISRDNAKNSLYLQMNSLRAEDTAVYYCARHDGGAMDYWGQGTTVTVSS
VL: DIQMTQSPSSLSASVGDRVTITCRASESIYSYLAWYQQKPGKAPKLLVYNTKTLPEGVPSRFSGSGSGTDFTLTISSLQPEDFATYYCQHHYGTPPWTFGQGTRLEIK
modifications: duocarmycin (DUBA) payload, cleavable linker, DAR 2.7
For B7, in data set [7], the “Grade 3 and higher treatment-related adverse events (TRAEs)” value was 50%; the “patients with Grade 3 and higher treatment-related adverse events (TRAEs)” value is reported as 43 patients; the “severe TRAE neutropenia” value is given as 22.1%; the “severe TRAE thrombocytopenia” value is recorded as 7%.
